{
  "source": "paper PMC6440464",
  "about": "(PeerJ, 2019)",
  "experiment": "Stability of the analytes in rat plasma QC samples at different storage conditions",
  "assay_type": "in vitro ADME",
  "conditions": "for Post-preparation stability (4℃ for 24 h) Measured Conc.: extracted plasma samples in auto sampler rack; for Post-preparation stability (4℃ for 24 h) Measured Conc. / Free-thaw stability (3 free-thaw cycles) Measured Conc. / Long-term stability (-80℃ for 15 d) Measured Conc. / Short-term stability (25℃ for 12 h) Measured Conc.: n=5; for Free-thaw stability, Test Conc., AV / Free-thaw stability, Test Conc. / Post-preparation stability, Test Conc., AV / Post-preparation stability, Test Conc. / Short-term stability, Test Conc., AV / Short-term stability, Test Conc. / Long-term stability, Test Conc., AV / Long-term stability, Test Conc.: plasma; for Free-thaw stability, Test Conc., AV / Free-thaw stability, Test Conc.: 3 free-thaw cycles; for Free-thaw stability, Test Conc., AV / Post-preparation stability, Test Conc., AV / Short-term stability, Test Conc., AV / Long-term stability, Test Conc., AV: AV of 5 replicates; for Free-thaw stability, Test Conc. / Post-preparation stability, Test Conc. / Short-term stability, Test Conc. / Long-term stability, Test Conc.: single replicates NO.1-NO.5, listed as Quercetin-3-O-β-D-glucuronide (QG); for Post-preparation stability, Test Conc., AV / Post-preparation stability, Test Conc.: 4℃ for 24 h; for Short-term stability, Test Conc., AV / Short-term stability, Test Conc.: 25℃ for 12 h; for Long-term stability, Test Conc., AV / Long-term stability, Test Conc.: -80℃ for 15 d; for Free-thaw stability (3 free-thaw cycles) Measured Conc. / Long-term stability (-80℃ for 15 d) Measured Conc. / Short-term stability (25℃ for 12 h) Measured Conc.: rat plasma",
  "protocol": "The stabilities of Qr, IQ, and QG in plasma were assessed by analyzing QC samples at different storage conditions. The stabilities of three flavonoids in plasma were studied by analyzing three concentration levels of QC samples (n = 5) at room temperature (25 °C) for 12 h, at long-term storage (−80 °C for 15 days), after three freeze (−80 °C) and thaw (room temperature) cycles, and at auto sampler rack storage (4 °C for 24 h).",
  "key": {"[1]": {"conditions": "high QC, nominal 8400.0 (Qr), 976.0 (IQ), 10000.0 (QG) ng/mL"}, "[2]": {"conditions": "low QC, nominal 65.6 (Qr), 48.8 (IQ), 100.0 (QG) ng/mL"}, "[3]": {"conditions": "medium QC, nominal 525.0 (Qr), 244.0 (IQ), 1000.0 (QG) ng/mL"}},
  "note": "Where “and” joins values, the source holds several entries; their conditions need not be identical. Equal values may be shown once.",
  "data": [
    {"smiles": "O=C(O)[C@H]1O[C@@H](Oc2c(-c3ccc(O)c(O)c3)oc3cc(O)cc(O)c3c2=O)[C@H](O)[C@@H](O)[C@@H]1O", "note": "[QG, Quercetin-3-O-β-D-glucuronide]", "values": [
      {"measurement": "Post-preparation stability (4℃ for 24 h) Measured Conc.", "setting": "[1]", "result": "9409.6 ± 569.5", "unit": "ng/mL"},
      {"measurement": "Post-preparation stability (4℃ for 24 h) Measured Conc.", "setting": "[2]", "result": "97.2 ± 6.0", "unit": "ng/mL"},
      {"measurement": "Post-preparation stability (4℃ for 24 h) Measured Conc.", "result": "910.7 ± 68.0", "unit": "ng/mL"},
      {"measurement": "Free-thaw stability, Test Conc., AV", "setting": "nominal Conc. 100.00 ng/mL", "result": 98.37, "unit": "ng/mL"},
      {"measurement": "Free-thaw stability, Test Conc.", "setting": "nominal Conc. 100.00 ng/mL", "result": "105.25 ng/mL and 86.98 ng/mL and 102.05 ng/mL and 100.21 ng/mL and 97.34 ng/mL"},
      {"measurement": "Free-thaw stability, Test Conc., AV", "setting": "nominal Conc. 1000.00 ng/mL", "result": 954.92, "unit": "ng/mL"},
      {"measurement": "Free-thaw stability, Test Conc.", "setting": "nominal Conc. 1000.00 ng/mL", "result": "860.30 ng/mL and 851.00 ng/mL and 988.40 ng/mL and 1022.10 ng/mL and 1052.80 ng/mL"},
      {"measurement": "Free-thaw stability, Test Conc., AV", "setting": "nominal Conc. 10000.00 ng/mL", "result": 9353.20, "unit": "ng/mL"},
      {"measurement": "Free-thaw stability, Test Conc.", "setting": "nominal Conc. 10000.00 ng/mL", "result": "8753.00 ng/mL and 9439.00 ng/mL and 10058.00 ng/mL and 9832.00 ng/mL and 8684.00 ng/mL"},
      {"measurement": "Post-preparation stability, Test Conc., AV", "setting": "nominal Conc. 100.00 ng/mL", "result": 97.18, "unit": "ng/mL"},
      {"measurement": "Post-preparation stability, Test Conc.", "setting": "nominal Conc. 100.00 ng/mL", "result": "105.22 ng/mL and 101.31 ng/mL and 93.07 ng/mL and 95.83 ng/mL and 90.49 ng/mL"},
      {"measurement": "Post-preparation stability, Test Conc., AV", "setting": "nominal Conc. 1000.00 ng/mL", "result": 910.72, "unit": "ng/mL"},
      {"measurement": "Post-preparation stability, Test Conc.", "setting": "nominal Conc. 1000.00 ng/mL", "result": "905.70 ng/mL and 890.50 ng/mL and 1027.40 ng/mL and 853.70 ng/mL and 876.30 ng/mL"},
      {"measurement": "Post-preparation stability, Test Conc., AV", "setting": "nominal Conc. 10000.00 ng/mL", "result": 9409.60, "unit": "ng/mL"},
      {"measurement": "Post-preparation stability, Test Conc.", "setting": "nominal Conc. 10000.00 ng/mL", "result": "8728.00 ng/mL and 8919.00 ng/mL and 9825.00 ng/mL and 10046.00 ng/mL and 9530.00 ng/mL"},
      {"measurement": "Short-term stability, Test Conc., AV", "setting": "nominal Conc. 100.00 ng/mL", "result": 89.29, "unit": "ng/mL"},
      {"measurement": "Short-term stability, Test Conc.", "setting": "nominal Conc. 100.00 ng/mL", "result": "86.17 ng/mL and 83.32 ng/mL and 97.85 ng/mL and 94.48 ng/mL and 84.64 ng/mL"},
      {"measurement": "Short-term stability, Test Conc., AV", "setting": "nominal Conc. 1000.00 ng/mL", "result": 943.20, "unit": "ng/mL"},
      {"measurement": "Short-term stability, Test Conc.", "setting": "nominal Conc. 1000.00 ng/mL", "result": "905.00 ng/mL and 917.50 ng/mL and 1029.40 ng/mL and 991.30 ng/mL and 872.80 ng/mL"},
      {"measurement": "Short-term stability, Test Conc., AV", "setting": "nominal Conc. 10000.00 ng/mL", "result": 9334.60, "unit": "ng/mL"},
      {"measurement": "Short-term stability, Test Conc.", "setting": "nominal Conc. 10000.00 ng/mL", "result": "9717.00 ng/mL and 8935.00 ng/mL and 9106.00 ng/mL and 9353.00 ng/mL and 9562.00 ng/mL"},
      {"measurement": "Long-term stability, Test Conc., AV", "setting": "nominal Conc. 100.00 ng/mL", "result": 98.57, "unit": "ng/mL"},
      {"measurement": "Long-term stability, Test Conc.", "setting": "nominal Conc. 100.00 ng/mL", "result": "87.09 ng/mL and 91.05 ng/mL and 96.73 ng/mL and 107.32 ng/mL and 110.64 ng/mL"},
      {"measurement": "Long-term stability, Test Conc., AV", "setting": "nominal Conc. 1000.00 ng/mL", "result": 941.48, "unit": "ng/mL"},
      {"measurement": "Long-term stability, Test Conc.", "setting": "nominal Conc. 1000.00 ng/mL", "result": "839.70 ng/mL and 1104.80 ng/mL and 874.40 ng/mL and 932.10 ng/mL and 956.40 ng/mL"},
      {"measurement": "Long-term stability, Test Conc., AV", "setting": "nominal Conc. 10000.00 ng/mL", "result": 9985.00, "unit": "ng/mL"},
      {"measurement": "Long-term stability, Test Conc.", "setting": "nominal Conc. 10000.00 ng/mL", "result": "10543.00 ng/mL and 10195.00 ng/mL and 11086.00 ng/mL and 9530.00 ng/mL and 8571.00 ng/mL"},
      {"measurement": "Free-thaw stability (3 free-thaw cycles) Measured Conc.", "setting": "[1]", "result": "9353.2 ± 620.8", "unit": "ng/mL"},
      {"measurement": "Long-term stability (-80℃ for 15 d) Measured Conc.", "setting": "[1]", "result": "9985.0 ± 971.4", "unit": "ng/mL"},
      {"measurement": "Short-term stability (25℃ for 12 h) Measured Conc.", "setting": "[1]", "result": "9334.6 ± 320.2", "unit": "ng/mL"},
      {"measurement": "Free-thaw stability (3 free-thaw cycles) Measured Conc.", "setting": "[2]", "result": "98.4 ± 7.0", "unit": "ng/mL"},
      {"measurement": "Long-term stability (-80℃ for 15 d) Measured Conc.", "setting": "[2]", "result": "98.6 ± 10.2", "unit": "ng/mL"},
      {"measurement": "Short-term stability (25℃ for 12 h) Measured Conc.", "setting": "[2]", "result": "89.3 ± 6.5", "unit": "ng/mL"},
      {"measurement": "Free-thaw stability (3 free-thaw cycles) Measured Conc.", "setting": "[3]", "result": "954.9 ± 93.5", "unit": "ng/mL"},
      {"measurement": "Long-term stability (-80℃ for 15 d) Measured Conc.", "setting": "[3]", "result": "941.5 ± 102.3", "unit": "ng/mL"},
      {"measurement": "Short-term stability (25℃ for 12 h) Measured Conc.", "setting": "[3]", "result": "943.2 ± 64.9", "unit": "ng/mL"}
    ]}
  ]
}
